# Measured values: US7807368B2, “Cyclin-dependent kinase inhibitors as targets for opiod growth factor treatment” (priority 2006, dated 2010)
# “Also recorded” adds a separate entry of the source.
# How the values were obtained:
# Assay type in all cases: cell-based, human
# [1] = test system: Rb protein; assay: Western blot of Rb, phospho-Rb, p105 and p107 in synchronized SCC-1 cells
# Experimental: Synchronized cells (˜2×10^6) from each treatment were solubilized in 200 μl RIPA buffer (1×PBS, 10 μM IGEPAL, 1 mg/ml SDS, 5 mg/ml deoxycholic acid), containing protease and phosphatase inhibitors (2 μg/ml aprotinin, 3 mg/ml phenylmethyl sulfonyl fluoride (PMSF), 1 mM sodium orthovanidate, 1 μM okadaic acid). Total protein concentrations were measured using the DC protein assay kit (Bio-Rad Laboratories, Hercules, Calif.). Equal amounts of protein (40 μg) were subjected to 10% SDS-PAGE followed by transfer of proteins onto polyvinylidene difluoride (Millipore, Billerica, Mass.) using standard protocols. The following antibodies were purchased from commercial sources: phospho-Rb (Ser795), phospho-Rb (Ser807/811) (Cell Signaling Technology, Beverly, Mass.); phospho-Rb (Thr821) (Biosource, Camarillo, Calif.); Cdk4, cyclin D1, p15, p16, p18, p19 (Santa Cruz Biotechnology, Santa Cruz, Calif.); total Rb, p21, p27 (BD PharMingen, San Diego, Calif.); β-actin (Clone AC-15, Sigma). The following dilutions of primary antibodies were used to detect respective proteins. 1:200 phospho-Rb (Ser795), 1:200 phospho-Rb (Ser807/811); 1:200 phospho-Rb (Thr821); 1:200 Cdk4, 1:200 cyclin D1, 1:100 p16; 1:200 total Rb, 1:200 p21, 1:100 p27. […]
# To determine equal loading of total protein samples, blots were reprobed with monoclonal antibody against β-actin at a dilution of 1:2000. […] Means and SE were determined from 3 or more independent experiments.
# To quantify expression levels or kinase activity, the optical density of each band was determined by densitometry and analyzed by QuickOne (Bio-Rad Laboratories). […] To report the changes due to OGF treatment, the fold increase was calculated by dividing the normalized value from the OGF treated samples by the normalized value of control samples at each time point; thus, increases due to OGF have values greater than one, and decreases due to OGF have values less than one.
# [2] = test system: p16; assay: Western blot of p16, other CKIs and Cdk4 in SCC-1 cells
# Experimental: Synchronized cells (˜2×10^6) from each treatment were solubilized in 200 μl RIPA buffer (1×PBS, 10 μM IGEPAL, 1 mg/ml SDS, 5 mg/ml deoxycholic acid), containing protease and phosphatase inhibitors (2 μg/ml aprotinin, 3 mg/ml phenylmethyl sulfonyl fluoride (PMSF), 1 mM sodium orthovanidate, 1 μM okadaic acid). Total protein concentrations were measured using the DC protein assay kit (Bio-Rad Laboratories, Hercules, Calif.). Equal amounts of protein (40 μg) were subjected to 10% SDS-PAGE followed by transfer of proteins onto polyvinylidene difluoride (Millipore, Billerica, Mass.) using standard protocols. The following antibodies were purchased from commercial sources: phospho-Rb (Ser795), phospho-Rb (Ser807/811) (Cell Signaling Technology, Beverly, Mass.); phospho-Rb (Thr821) (Biosource, Camarillo, Calif.); Cdk4, cyclin D1, p15, p16, p18, p19 (Santa Cruz Biotechnology, Santa Cruz, Calif.); total Rb, p21, p27 (BD PharMingen, San Diego, Calif.); β-actin (Clone AC-15, Sigma). The following dilutions of primary antibodies were used to detect respective proteins. 1:200 phospho-Rb (Ser795), 1:200 phospho-Rb (Ser807/811); 1:200 phospho-Rb (Thr821); 1:200 Cdk4, 1:200 cyclin D1, 1:100 p16; 1:200 total Rb, 1:200 p21, 1:100 p27. Membranes were probed with secondary anti-rabbit or anti-mouse horseradish peroxidase-conjugated antibodies (GE Healthcare-Amersham Biosciences, Piscataway, N.J.); blots were developed using a chemiluminescence Western blotting detection system (GE Healthcare-Amersham Biosciences).
# To determine equal loading of total protein samples, blots were reprobed with monoclonal antibody against β-actin at a dilution of 1:2000. If necessary, membranes were stripped in stripping buffer (62.5 mM Tris-HCl and 100 mM β-mercaptoethanol/2% SDS, pH 6.7) at 50° C. before being re-probed. Means and SE were determined from 3 or more independent experiments.
# To quantify expression levels or kinase activity, the optical density of each band was determined by densitometry and analyzed by QuickOne (Bio-Rad Laboratories). Each value was normalized to β-actin from the same blot. To report the changes due to OGF treatment, the fold increase was calculated by dividing the normalized value from the OGF treated samples by the normalized value of control samples at each time point; thus, increases due to OGF have values greater than one, and decreases due to OGF have values less than one.
# The p16-targeted siRNAs (antisense:5′ […]-3′; sense (SEQ ID NO:5): 5′ […]-3′(SEQ ID NO:6) were obtained as ready-annealed, purified duplex probes (Invitrogen, Carlsbad, Calif.). For transfection, 2×10^5 cells per well were seeded in 6-well plates containing 1 ml of serum-free media without antibiotics. In each well, 20 nM of p16-siRNA or control siRNA solutions in serum-free media were added. Cells were incubated for 4 h at 37° C. prior to the addition of OGF. Cultures were incubated for additional 20 h, and then 1 ml fresh complete media either lacking or containing OGF was added. At the indicated time points, cells were collected for growth curves or Western blotting. Three or more independent experiments were conducted. The control siRNAs were purchased from Ambion.
# [3] = test system: p21; assay: Western blot of p21 in Capan-2 cells; conditions: 3 hours
# Experimental: Human pancreatic cancer cell lines BxPC-3, PANC-1, and Capan-2 were obtained from the American Type Culture Collection (Manassas, Va.), and cultured in RPMI, Dulbecco's Modified Medium, or McCoy's 5A medium, respectively. All media were supplemented with 10% fetal bovine serum, 1.2% sodium bicarbonate, and 0.25% antibiotics (5000 units/ml penicillin, 5 μg/ml streptomycin and 10 μg/ml neomycin). OGF was purchased from Sigma-Aldrich (St. Louis, Mo.), dissolved in sterile water, and used at a final concentration of 10^−6 M.
# Synchronized cells (2×10^6) from each treatment were solubilized in 200 μl RIPA buffer (1×PBS, 10 μM IGEPAL, 1 mg/ml SDS, 5 mg/ml deoxycholic acid), containing protease and phosphatase inhibitors (2 μg/ml aprotinin, 3 mg/ml phenylmethyl sulfonyl fluoride, 1 mM sodium orthovanidate, 1 μM okadaic acid). Total protein concentrations were measured using the DC protein assay kit (Bio-Rad Laboratories, Hercules, Calif.). Equal amounts of protein (40 μg) were subjected to 10% SDS-PAGE followed by transfer of proteins onto polyvinylidene difluoride (Millipore, Billerica, Mass.) using standard protocols.
# The p21-targeted siRNAs were obtained from Santa Cruz Biotechnology, and negative control siRNAs were purchased from Ambion (Ambion, Inc., Austin, Tex.). For transfection, 2×10^5 cells per well were seeded in 6-well plates containing 1 ml of media without antibiotics. […]
# [4] = test system: SCC-1 cells; assay: Flow cytometry cell cycle distribution, synchronized SCC-1 cells; conditions: 10^-6 M OGF, 14 h
# Experimental: For flow cytometry, cells were synchronized with 0.5 μg/ml nocodazole (Sigma-Aldrich) for 24 h, followed by three washes with complete media. Cells were released from growth arrest by addition of complete media or OGF-supplemented media. Synchronized cells were treated with 10^−6 M OGF for 14 h, harvested with 0.25% trypsin-EDTA (Mediatech, Herndon, Va.) and fixed with 70% ethanol at −20° C. for up to 7 days before DNA analysis. DNA content was obtained by incubating cells in PBS containing propidium iodide (0.1 mg/ml) and RNase A (0.02 mg/ml) for 15 min at 22° C. Fluorescence was measured and analyzed using a BD Biosciences FACScan flow cytometer (San Diego, Calif.) and Modfit Software (Topsham, Me.).
substance,measurement,setting,value
[Met^5]-enkephalin [OGF],phospho-Rb (pT821) levels,"[1]; OGF treatment, Western blot",did not alter
same,Expression of total Rb protein,[1]; after 14 h of OGF treatment,not decreased
same,Total levels of p105 and p107,[1]; after exposure to OGF,no changes
same,"expression of cell cycle inhibitors p15, p18, p19, p21 and p27",[2]; OGF treatment of SCCHN,no significant effect
same,expression of Cdk4 protein,[2]; following OGF exposure,did not change
same,p16 expression,"[2]; synchronized SCC-1 cells, 3 h, 10^-6 M OGF, 10^-5 M naloxone",significantly upregulated; also recorded: significantly elevated
same,p21 expression relative to control cultures,[3],increased p21 expression
same,cells in the G2/M phase,[4],22.7%
same,cells in the S phase,[4],42.7%
same,percentage of cells in the G0/G1 phase,[4],34.6%
